Measured values taken from patent US20230265116A1, “DEGRADATION OF (EGFR) BY CONJUGATION OF EGFR INHIBITORS WITH E3 LIGASE LIGAND AND METHODS OF USE” (BEIGENE, LTD., priority 2020, published 2023).

What was measured:
[1] = test system: EGFR Del19/T790M/C797S (BaF3-DTC cells); assay: EGFR degradation HTRF assay, BaF3-DTC cells; format: cell-based; details: 16h treatment; for DTC Dmax (%): maximum percentage of degradation; for DC50: read-out: DTC DC50
Outline: (§1)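 Cells treated 16 h at 37 °C, 5% CO2 in medium with 0.2% DMSO; top final concentration 10 uM, 5-fold dilution, 8 doses. Lysates read by HTRF (665/620 nm); degradation % versus DMSO high control, DC50 from four-parameter fit, Dmax as maximal degradation.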

[2] = target: T1, EGFR L858R/T790M/C797S (BaF3-LTC cells) (Homo sapiens, UniProt P00533, C797S/L858R/T790M); assay: EGFR degradation HTRF assay, BaF3-LTC cells; format: cell-based; details: BaF3-LTC, 16h treatment; for Dmax: maximum percentage of degradation, read-out: LTC Dmax (%); for DC50: read-out: LTC DC50
T1 construct: expressed in transfected cells; host or cells: BaF3
Outline: as §1

T1 sequence (P00533 25-1210 T790M/C797S/L858R): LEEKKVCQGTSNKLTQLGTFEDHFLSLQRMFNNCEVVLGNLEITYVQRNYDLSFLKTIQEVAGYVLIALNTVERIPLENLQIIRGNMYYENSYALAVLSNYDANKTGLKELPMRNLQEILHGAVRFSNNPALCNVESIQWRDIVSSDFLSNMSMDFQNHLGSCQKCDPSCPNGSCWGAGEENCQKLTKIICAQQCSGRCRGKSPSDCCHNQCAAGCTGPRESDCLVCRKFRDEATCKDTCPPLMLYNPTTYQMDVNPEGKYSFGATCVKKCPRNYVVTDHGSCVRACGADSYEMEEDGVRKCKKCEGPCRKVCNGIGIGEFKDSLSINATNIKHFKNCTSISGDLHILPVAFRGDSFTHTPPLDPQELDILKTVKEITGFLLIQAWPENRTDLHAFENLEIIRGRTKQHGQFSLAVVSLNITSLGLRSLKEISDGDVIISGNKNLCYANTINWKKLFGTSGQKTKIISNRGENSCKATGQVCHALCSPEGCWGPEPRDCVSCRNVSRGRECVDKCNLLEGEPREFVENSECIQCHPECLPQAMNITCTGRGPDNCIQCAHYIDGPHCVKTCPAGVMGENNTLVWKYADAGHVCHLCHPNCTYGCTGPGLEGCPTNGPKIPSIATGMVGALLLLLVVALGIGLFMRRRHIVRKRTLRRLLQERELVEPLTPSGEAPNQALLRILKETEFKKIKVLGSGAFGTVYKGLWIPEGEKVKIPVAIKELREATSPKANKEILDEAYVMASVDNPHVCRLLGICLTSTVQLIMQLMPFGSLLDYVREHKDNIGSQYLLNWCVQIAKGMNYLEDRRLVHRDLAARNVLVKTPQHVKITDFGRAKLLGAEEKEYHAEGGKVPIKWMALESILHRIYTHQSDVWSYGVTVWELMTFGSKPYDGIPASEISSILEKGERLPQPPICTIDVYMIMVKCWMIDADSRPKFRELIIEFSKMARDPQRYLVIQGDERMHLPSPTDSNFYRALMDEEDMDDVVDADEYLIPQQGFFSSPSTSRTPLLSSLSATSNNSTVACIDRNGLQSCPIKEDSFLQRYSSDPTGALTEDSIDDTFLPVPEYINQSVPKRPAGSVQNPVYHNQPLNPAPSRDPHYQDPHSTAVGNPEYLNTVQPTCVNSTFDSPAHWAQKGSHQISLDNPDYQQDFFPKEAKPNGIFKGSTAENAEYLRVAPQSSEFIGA

DC50 [1]	Dmax [2]	DC50 [2]	Structure (SMILES)	DTC Dmax (%) [1]
1.91 nM	93.2%	6.11 nM	CCc1cc(Nc2ncc(Br)c(Nc3ccc4nc(C)ccc4c3P(C)(C)=O)n2)c(OC)cc1N1CCC(N2CCN(CCc3ccc4c(c3)N(C3CCC(=O)NC3=O)C(=O)C4(C)C)CC2)CC1 (stereo not drawn) [Example 413, 3-(6-(2-(4-(1-(4-((5-bromo-4-((5-(dimethylphosphoryl)-2-methylquinolin-6-yl)amino)pyrimidin-2-yl)amino)-2-ethyl-5-methoxyphenyl)piperidin-4-yl)piperazin-1-yl)ethyl)-3,3-dimethyl-2-oxoindolin-1-yl)piperidine-2,6-dione]	95.66%
3.49 nM	81.8%	19.8 nM	CCc1cc(Nc2ncc(Br)c(Nc3ccc4nccnc4c3P(C)(C)=O)n2)c(OC)cc1N1CCC(N2CCN(C(=O)C3CN(c4ccc(C5CCC(=O)NC5=O)c(F)c4)C3)CC2)CC1 (stereo not drawn) [Example 228, 3-(4-(3-(4-(1-(4-((5-bromo-4-((5-(dimethylphosphoryl)quinoxalin-6-yl)amino)pyrimidin-2-yl)amino)-2-ethyl-5-methoxyphenyl)piperidin-4-yl)piperazine-1-carbonyl)azetidin-1-yl)-2-fluorophenyl)piperidine-2,6-dione]	79.14%
4.43 nM	88.2%	9.32 nM	CCc1cc(Nc2ncc(Br)c(Nc3ccc4nc(C(F)(F)F)ccc4c3P(C)(C)=O)n2)c(OC)cc1N1CCC(N2CCN(C(=O)C3CN(c4ccc5c(c4)CN(C4CCC(=O)NC4=O)C5=O)C3)CC2)CC1 (stereo not drawn) [Example 434, 3-(5-(3-(4-(1-(4-((5-bromo-4-((5-(dimethylphosphoryl)-2-(trifluoromethyl)quinolin-6-yl)amino)pyrimidin-2-yl)amino)-2-ethyl-5-methoxyphenyl)piperidin-4-yl)piperazine-1-carbonyl)azetidin-1-yl)-1-oxoisoindolin-2-yl)piperidine-2,6-dione]	85.05%
9.03 nM	86.6%	22.1 nM	CCc1cc(Nc2ncc(Br)c(Nc3ccc4nccnc4c3P(C)(C)=O)n2)c(OC)cc1N1CCC(N2CCN(C(=O)C3CN(c4ccc(C5CCC(=O)NC5=O)cc4)C3)CC2)CC1 (stereo not drawn) [Example 199, 3-(4-(3-(4-(1-(4-((5-bromo-4-((5-(dimethylphosphoryl)quinoxalin-6-yl)amino)pyrimidin-2-yl)amino)-2-ethyl-5-methoxyphenyl)piperidin-4-yl)piperazine-1-carbonyl)azetidin-1-yl)phenyl)piperidine-2,6-dione]	84.49%
11.9 nM	81.4%	30.1 nM	CCc1cc(Nc2ncc(Br)c(Nc3ccc4nccnc4c3P(C)(C)=O)n2)c(OC)cc1N1CCC(N2CCN(C[C@H]3C[C@H](N(C)c4ccc(C5CCC(=O)NC5=O)cc4)C3)CC2)CC1 (stereo partly drawn) [Example 245, 3-(4-(((1r,3r)-3-((4-(1-(4-((5-bromo-4-((5-(dimethylphosphoryl)quinoxalin-6-yl)amino)pyrimidin-2-yl)amino)-2-ethyl-5-methoxyphenyl)piperidin-4-yl)piperazin-1-yl)methyl)cyclobutyl)(methyl)amino)phenyl)piperidine-2,6-dione]	87.52%
5.56 nM	87.7%	23.3 nM	COc1cc(N2CCC(N3CCN(CCC4CCN(c5cc(F)c(C6CCC(=O)NC6=O)c(F)c5)CC4)CC3=O)CC2)c(C)cc1Nc1ncc(Br)c(Nc2ccc3nccnc3c2P(C)(C)=O)n1 (stereo not drawn) [Example 216, 3-(4-(4-(2-(4-(1-(4-((5-bromo-4-((5-(dimethylphosphoryl)quinoxalin-6-yl)amino)pyrimidin-2-yl)amino)-5-methoxy-2-methylphenyl)piperidin-4-yl)-3-oxopiperazin-1-yl)ethyl)piperidin-1-yl)-2,6-difluorophenyl)piperidine-2,6-dione]	93.59%
15.2 nM	91.3%	22.7 nM	CCc1cc(Nc2ncc(Br)c(Nc3ccc4nc(C)ccc4c3P(C)(C)=O)n2)c(OC)cc1N1CCC(N2CCN(C(=O)C3CN(CCc4cc(F)c(C5CCC(=O)NC5=O)c(F)c4)C3)CC2)CC1 (stereo not drawn) [Example 708, 3-(4-(2-(3-(4-(1-(4-((5-bromo-4-((5-(dimethylphosphoryl)-2-methylquinolin-6-yl)amino)pyrimidin-2-yl)amino)-2-ethyl-5-methoxyphenyl)piperidin-4-yl)piperazine-1-carbonyl)azetidin-1-yl)ethyl)-2,6-difluorophenyl)piperidine-2,6-dione]	81.62%
9.59 nM	79%	48.7 nM	CCc1cc(Nc2ncc(Br)c(Nc3ccc4nc(C(C)C)ccc4c3P(C)(C)=O)n2)c(OC)cc1N1CCC(N2CCN(CCc3cc(F)c(C4CCC(=O)NC4=O)c(F)c3)CC2)CC1 (stereo not drawn) [Example 316, 3-(4-(2-(4-(1-(4-((5-bromo-4-((5-(dimethylphosphoryl)-2-isopropylquinolin-6-yl)amino)pyrimidin-2-yl)amino)-2-ethyl-5-methoxyphenyl)piperidin-4-yl)piperazin-1-yl)ethyl)-2,6-difluorophenyl)piperidine-2,6-dione]	89.57%
7.6 nM	87.8%	18.5 nM	CCc1cc(Nc2ncc(Br)c(Nc3ccc4ncccc4c3P(C)(C)=O)n2)c(OC)cc1N1CCC(N2CCN(CCC3CCN(c4cc(F)c(C5CCC(=O)NC5=O)c(F)c4)CC3)CC2)CC1 (stereo not drawn) [Example 202, 3-(4-(4-(2-(4-(1-(4-((5-bromo-4-((5-(dimethylphosphoryl)quinolin-6-yl)amino)pyrimidin-2-yl)amino)-2-ethyl-5-methoxyphenyl)piperidin-4-yl)piperazin-1-yl)ethyl)piperidin-1-yl)-2,6-difluorophenyl)piperidine-2,6-dione]	93.39%
61.2 nM	75.5%	81.4 nM	CCc1cc(Nc2ncc(Br)c(Nc3ccc4nccnc4c3P(C)(C)=O)n2)c(OC)cc1N1CCC(N2CCN(C[C@H]3C[C@H](c4ccc(NC5CCC(=O)NC5=O)cc4)C3)CC2)CC1 (stereo partly drawn) [Example 284, 3-((4-((1r,3r)-3-((4-(1-(4-((5-bromo-4-((5-(dimethylphosphoryl)quinoxalin-6-yl)amino)pyrimidin-2-yl)amino)-2-ethyl-5-methoxyphenyl)piperidin-4-yl)piperazin-1-yl)methyl)cyclobutyl)phenyl)amino)piperidine-2,6-dione]	77.49%
5.89 nM	87.2%	32.1 nM	CCc1cc(Nc2ncc(Br)c(Nc3ccc4nccnc4c3P(C)(C)=O)n2)c(OC)cc1N1CCC(N2CCN(CCc3ccc4nn(C5CCC(=O)NC5=O)cc4c3)CC2)CC1 (stereo not drawn) [Example 309, 3-(5-(2-(4-(1-(4-((5-bromo-4-((5-(dimethylphosphoryl)quinoxalin-6-yl)amino)pyrimidin-2-yl)amino)-2-ethyl-5-methoxyphenyl)piperidin-4-yl)piperazin-1-yl)ethyl)-2H-indazol-2-yl)piperidine-2,6-dione]	92.99%
3.26 nM	87.6%	4.6 nM	CCc1cc(Nc2ncc(Br)c(Nc3ccc4nccnc4c3P(C)(C)=O)n2)c(OC)cc1N1CCC(N2CCN(C(=O)[C@@H]3CCN(c4ccc5c(c4)CN(C4CCC(=O)NC4=O)C5=O)C3)CC2)CC1 (stereo partly drawn) [Example 241, 3-(5-((R)-3-(4-(1-(4-((5-bromo-4-((5-(dimethylphosphoryl)quinoxalin-6-yl)amino)pyrimidin-2-yl)amino)-2-ethyl-5-methoxyphenyl)piperidin-4-yl)piperazine-1-carbonyl)pyrrolidin-1-yl)-1-oxoisoindolin-2-yl)piperidine-2,6-dione]	89.74%
3.06 nM	90%	8.2 nM	CCc1cc(Nc2ncc(Br)c(Nc3ccc4nc(C)ccc4c3P(C)(C)=O)n2)c(OC)cc1N1CCC(N2C[C@H](C)N(CCc3cc(F)c(C4CCC(=O)NC4=O)c(F)c3)C[C@H]2C)CC1 (stereo partly drawn) [Example 716, 3-(4-(2-((2S,5R)-4-(1-(4-((5-bromo-4-((5-(dimethylphosphoryl)-2-methylquinolin-6-yl)amino)pyrimidin-2-yl)amino)-2-ethyl-5-methoxyphenyl)piperidin-4-yl)-2,5-dimethylpiperazin-1-yl)ethyl)-2,6-difluorophenyl)piperidine-2,6-dione]	91.65%
8.41 nM	81.5%	37.2 nM	CCc1cc(Nc2ncc(Br)c(Nc3ccc4nccnc4c3P(C)(C)=O)n2)c(OC)cc1N1CCC(N2CCN(C(=O)[C@@H]3CCN(c4ccc(C5CCC(=O)NC5=O)cc4)C3)CC2)CC1 (stereo partly drawn) [Example 224, 3-(4-((R)-3-(4-(1-(4-((5-bromo-4-((5-(dimethylphosphoryl)quinoxalin-6-yl)amino)pyrimidin-2-yl)amino)-2-ethyl-5-methoxyphenyl)piperidin-4-yl)piperazine-1-carbonyl)pyrrolidin-1-yl)phenyl)piperidine-2,6-dione]	87.47%
152 nM	76%	248 nM	CCc1cc(Nc2ncc(Br)c(Nc3ccc4nccnc4c3P(C)(C)=O)n2)c(OC)cc1N1CCC(N2CCN(CCc3ccc(C4(C)CCC(=O)NC4=O)cc3)CC2)CC1 (stereo not drawn) [Example 280, 3-(4-(2-(4-(1-(4-((5-bromo-4-((5-(dimethylphosphoryl)quinoxalin-6-yl)amino)pyrimidin-2-yl)amino)-2-ethyl-5-methoxyphenyl)piperidin-4-yl)piperazin-1-yl)ethyl)phenyl)-3-methylpiperidine-2,6-dione]	68.21%
